Patent US20080269214A1, “Pyrrole Derivatives as Dna Gyrase and Topoisomerase Inhibitors” (ASTRAZENECA AB, priority 2005, published 2008)
Values after ≈ are worked out from the molar mass of the structure shown.

Experiments:
Assay in all cases: Bacterial susceptibility testing in liquid media (MIC)
SPN548 = format: cell-based, Streptococcus pneumoniae; conditions: strain SPN548; no unit printed in table (b320 text uses μg/ml); growth reduced by 80% or more, 24 hrs
Description: (§1) Compounds were tested for antimicrobial activity by susceptibility testing in liquid media. Compounds were dissolved in dimethylsulfoxide and tested in 10 doubling dilutions in the susceptibility assays. The organisms used in the assay were grown overnight on suitable agar media and then suspended in a liquid medium appropriate for the growth of the organism. The suspension was a 0.5 McFarland and a further 1 in 10 dilution was made into the same liquid medium to prepare the final organism suspension in 100 µL. Plates were incubated under appropriate conditions at 37 degrees C. for 24 hrs prior to reading. The Minimum Inhibitory Concentration was determined as the lowest drug concentration able to reduce growth by 80% or more.

SAU516 = format: cell-based; conditions: strain SAU516; no unit printed in table (b320 text uses μg/ml); growth reduced by 80% or more, 24 hrs
Description: as §1

HIN446 = format: cell-based; conditions: strain HIN446; no unit printed in table (b320 text uses μg/ml); growth reduced by 80% or more, 24 hrs
Description: as §1

Streptococcus pneumoniae = format: cell-based; conditions: lowest concentration reducing growth by 80% or more, 37 degrees C., 24 hrs, read-out: MIC against Streptococcus pneumoniae
Description: as §1

| MIC (Streptococcus pneumoniae) [µg/mL] | SMILES | MIC SPN548 (SPN548) | MIC SAU516 (SAU516) | MIC HIN446 (HIN446) |
| --- | --- | --- | --- | --- |
|  | CNc1ncc(-c2ccc(NC(=O)c3[nH]c(C)c(Cl)c3Cl)cc2)cc1C(=O)O [Example 25, 5-(4-{[(3,4-Dichloro-5-methyl-1H-pyrrol-2-yl)carbonyl]amino}phenyl)-2-(methylamino)nicotinic acid] | 1 | 2 | 4 |
|  | Cc1[nH]c(C(=O)Nc2ccc(-c3ccc(C(=O)O)o3)cc2)c(Cl)c1Cl [Example 36, 5-(4-{[(3,4-Dichloro-5-methyl-1H-pyrrol-2-yl)carbonyl]amino}phenyl)-2-furoic acid] | 0.25 | 2 | 1 |
|  | Cc1[nH]c(C(=O)Nc2ccc(-c3cnc(Cl)c(C(=O)O)c3)cc2)c(Cl)c1Cl [Example 26, 2-Chloro-5-(4-{[(3,4-dichloro-5-methyl-1H-pyrrol-2-yl)carbonyl]amino}phenyl)nicotinic acid] | 1 | 32 | 8 |
| 1 (≈ 2.38 µM) | COc1ncc(-c2ccc(NC(=O)c3[nH]c(C)c(Cl)c3Cl)cc2)cc1C(=O)O [Example 30, 5-(4-{[(3,4-Dichloro-5-methyl-1H-pyrrol-2-yl)carbonyl]amino}phenyl)-2-methoxynicotinic acid] |  |  |  |
|  | Cc1[nH]c(C(=O)Nc2ccc(-c3cncc(C(=O)O)c3)cc2)c(Cl)c1Cl [Example 23, 5-[4-[[(3,4-Dichloro-5-methyl-1H-pyrrol-2-yl)carbonyl]amino]phenyl]-3-pyridinecarboxylic acid] | 0.13 | 4 | 2 |
|  | Cc1[nH]c(C(=O)Nc2ccc(-c3cc(C(=O)O)ccn3)cc2)c(Cl)c1Cl [Example 27, 2-(4-{[(3,4-Dichloro-5-methyl-1H-pyrrol-2-yl)carbonyl]amino}phenyl)isonicotinic acid] | 0.13 | 2 | 2 |
